# Data reported in patent US9291629B2, “Adiponectin receptor C-terminal fragments (CTF)-immunoglobulin” (Siemens Healthcare Diagnostics Inc., priority 2011, dated 2016).
# Key:
# mouse myocytes (C2C12) = test: Western blot of CTF immunoglobulin in induced mouse myocytes (C2C12); type: cell-based; conditions: for Increase of CTF immunoglobulin on treatment of cell cultures: myocyte cell culture; for Primarily observed immunoglobulin chains with CTF: treated myocyte, denatured western blot of lysates
# Experimental: (§1) Samples and homogenates with protein concentration of about 20 ug/ml were boiled in water for 5 minutes in buffer with SDS and chilled on ice to denature the protein. The sample was then centrifuged to remove precipitate and was boiled sample 1:1 with BioRad Laemmli buffer with 5% beta-mercaptoethanol to break the disulfide bonds. The treated samples were loaded onto the 12% or 10% Ready Gel (Biorad) and SDS-PAGE gel was run in Tris, glycine, SDS buffer (BioRad) at 110V (BioRad PROTEAN® Tetra Cel) for 1-1.5 hours until the bromophenol blue reached the bottom of the gel. Gel plates were disassembled, soaked in transfer buffer and the gels were transferred to 0.2 um nitrocellulose paper at 30V in a 4° C. chamber overnight.
# (§2) After the protein transfer, the nitrocellulose was rinsed and washed with TTBS buffer (20 mM Tris, 500 mM NaCl, pH 7.4, 0.1% Tween®-20). The membrane was then blocked with 5% BSA in TTBS at room temperature with gentle agitation. The blocking buffer was then removed and the membrane was incubated with antibodies conjugated to alkaline phosphatase or horse radish peroxidase. For AdipoR1 CTF, the mAb 444-1D12 conjugated to alkaline phosphatase was used (2.5 mg/ml diluted 1:1000 Siemens Healthcare Diagnostics). The membrane with antibody conjugate was incubated at room temperature for 3 hours or at 4° C. overnight with gentle agitation. The antibody was then discarded and the gel was washed three times with TTBS for 5 minutes each. The membrane was incubated with the alkaline phosphate or horse radish peroxidase substrate and the color developed and recorded. In some cases the membrane was imaged by exposure to X-ray film (Fisher) at a desired time (3 seconds to 10 minutes) and then developed using Kodak® GBX developer/fixer.
# (§3) Cell culture mouse myocytes (C2C12) and green monkey epithelial cell (VERO) (American Type Cell Culture, ATCC, Manassa Va.) were maintained in culture using RPMI-1640 media, while normal cells were maintained with modified Eagle's medium (MEM). Both media contained 2 mM glutamine, penicillin (50 units/ml), streptomycin (50 μg/ml), and 10% fetal bovine serum. The media was cytokine free. Cells were grown at 37° C. in an atmosphere of 95% air and 5% CO2 and propagated by splitting with 1 to 4 dilutions using PBS/EDTA at cell growth confluence. Cell lines were synchronized and induced with R1 CTF25 SEQ ID NO:11 or globular adiponectin.
# (§4) Both cell lines expressed Adiponectin receptor 1 and lysates from both cell lines contained CTF immunoglobulin, comprising the heavy chain and full IgG but without the light chain form on denatured Western blots. As these are cell cultures grown in fetal bovine serum containing bovine IgG, the cells attach CTF to IgG. […]
# CTF immunoglobulin = test: Western blot of CTF immunoglobulin in tissues of diabetic rats treated with AdipoR1 CTF25; type: in vivo; conditions: for Primarily observed immunoglobulin chains with CTF: treated diabetic rats
# Experimental: Western blot analyses were run on human plasma, pancreas, adipose, liver and muscles tissue, as well as myocytes and epithelial cell culture homogenates according to the following methods and variations thereof.
# as §1, §2
# The results of the western blots obtained on liver, pancreas, muscle and mesenteric tissues of normal rats, diabetic rats and diabetic rats treated with AdipoR1 CTF25 (SEQ ID NO: 11) are shown in Table 3. Results are typical for all monoclonal antibodies to CTF AdipoR1 and AdipoR2 and treatments tested. All of the tissues show the presence of CTF immunoglobulins. […] Differences in the amount of immunoglobulin chains with CTF were observed between individual rat and between normal and diabetic rats. All tissues contained IDE and TACE.
# [1] = test system: green monkey epithelial cell (VERO); test: Western blot of CTF immunoglobulin in induced green monkey epithelial cells (VERO); type: cell-based; conditions: for Increase of CTF immunoglobulin on treatment of cell cultures: epithelial cell culture; for Primarily observed immunoglobulin chains with CTF: treated epithelial cells, denatured western blot of lysates
# Experimental: as §1, §2, §3, §4
Substance,Increase of CTF immunoglobulin on treatment of cell cultures (mouse myocytes (C2C12)),Primarily observed immunoglobulin chains with CTF (mouse myocytes (C2C12)),Increase of CTF immunoglobulin bands on treatment (CTF immunoglobulin; rat tissues),Primarily observed immunoglobulin chains with CTF (CTF immunoglobulin; liver),Primarily observed immunoglobulin chains with CTF (CTF immunoglobulin; mesenteric tissues),Primarily observed immunoglobulin chains with CTF (CTF immunoglobulin; muscle),Primarily observed immunoglobulin chains with CTF (CTF immunoglobulin; pancreas),Increase of CTF immunoglobulin on treatment of cell cultures [1],Primarily observed immunoglobulin chains with CTF [1]
HFYGVSNLQEFRYGLEGGCTDDTLL [AdipoR1 CTF25],did not increase CTF immunoglobulin,Heavy chains &,did not increase bands,Light chains,Heavy & light,Heavy & light,Heavy chain,did not increase CTF immunoglobulin,Heavy chains &
adiponectin [reference compound],did not increase CTF immunoglobulin bands,Heavy chains & full,–,–,–,–,–,did not increase CTF immunoglobulin bands,Heavy chains & full
